Test results as given in PubChem BioAssay AID248 (DTP/NCI, 2004).
Where “and” joins values, the source holds several entries; their conditions need not be identical. Equal entries are not always repeated. Toxic doses and inconclusive results are not listed. Rule as the data show it: active = T/C of 150% or more; inactive = T/C below 125%.

System: L1210 leukemia ip in BDF1 mice, survival T/C
Assay: NCI In Vivo Anticancer Drug Screen. Data for tumor model L1210 Leukemia (intraperitoneal) in B6D2F1 (BDF1) mice
Settings: endpoint: mean survival time, higher = longer survival
How it was run: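 Survival endpoint. Drug-treated group vs vehicle group, expressed as T divided by C. Tumor passaged by transplantation.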

[1] = dose: 100.0 mg/kg/injection, schedule: Q04DX003 (ip), vehicle: Klucel (hydroxypropylcellulose) (HPC)
[2] = dose: 200.0 mg/kg/injection, schedule: Q04DX003 (ip), vehicle: Klucel (hydroxypropylcellulose) (HPC)
[3] = dose: 400.0 mg/kg/injection, schedule: Q04DX003 (ip), vehicle: Klucel (hydroxypropylcellulose) (HPC)
[4] = dose: 100.0 mg/kg/injection, schedule: Q04DX002 (ip), vehicle: Klucel (hydroxypropylcellulose) (HPC)
[5] = dose: 100.0 mg/kg/injection, schedule: Q01DX001 (ip), vehicle: saline
[6] = dose: 400.0 mg/kg/injection, schedule: Q01DX001 (ip), vehicle: saline
[7] = dose: 100.0 mg/kg/injection, schedule: Q01DX001 (ip), vehicle: carboxymethylcellulose (CMC)
[8] = dose: 200.0 mg/kg/injection, schedule: Q01DX001 (ip), vehicle: carboxymethylcellulose (CMC)
[9] = dose: 400.0 mg/kg/injection, schedule: Q01DX001 (ip), vehicle: carboxymethylcellulose (CMC)
[10] = dose: 100.0 mg/kg/injection, schedule: Q01DX009 (ip), vehicle: Klucel (hydroxypropylcellulose) (HPC)
[11] = dose: 200.0 mg/kg/injection, schedule: Q01DX009 (ip), vehicle: Klucel (hydroxypropylcellulose) (HPC)
[12] = dose: 200.0 mg/kg/injection, schedule: Q04DX002 (ip), vehicle: Klucel (hydroxypropylcellulose) (HPC)
[13] = dose: 400.0 mg/kg/injection, schedule: Q04DX002 (ip), vehicle: Klucel (hydroxypropylcellulose) (HPC)
[14] = dose: 100.0 mg/kg/injection, schedule: Q04DX003 (ip), vehicle: saline with Tween-80
[15] = dose: 100.0 mg/kg/injection, schedule: Q01DX009 (ip), vehicle: saline with Tween-80
[16] = dose: 200.0 mg/kg/injection, schedule: Q01DX009 (ip), vehicle: saline with Tween-80
[17] = dose: 400.0 mg/kg/injection, schedule: Q01DX009 (ip), vehicle: saline with Tween-80
[18] = dose: 100.0 mg/kg/injection, schedule: Q04DX002 (ip), vehicle: saline with Tween-80
[19] = dose: 200.0 mg/kg/injection, schedule: Q04DX002 (ip), vehicle: saline with Tween-80
[20] = dose: 400.0 mg/kg/injection, schedule: Q04DX002 (ip), vehicle: saline with Tween-80
[21] = dose: 200.0 mg/kg/injection, schedule: Q04DX003 (ip), vehicle: saline with Tween-80
[22] = dose: 400.0 mg/kg/injection, schedule: Q04DX003 (ip), vehicle: saline with Tween-80
[23] = dose: 25.0 mg/kg/injection, schedule: Q04DX002 (ip), vehicle: saline
[24] = dose: 50.0 mg/kg/injection, schedule: Q04DX002 (ip), vehicle: saline
[25] = dose: 100.0 mg/kg/injection, schedule: Q01DX001 (ip), vehicle: other
[26] = dose: 200.0 mg/kg/injection, schedule: Q01DX001 (ip), vehicle: other
[27] = dose: 400.0 mg/kg/injection, schedule: Q01DX001 (ip), vehicle: other
[28] = dose: 400.0 mg/kg/injection, schedule: Q01DX009 (ip), vehicle: Klucel (hydroxypropylcellulose) (HPC)

Measured: T/C

NCc1ccc(NC(=O)c2ccc(C(=O)Nc3ccc(CN)cc3)cc2)cc1
inactive: dose: 15.0 mg/kg/injection, schedule: Q01DX Z (ip), vehicle: water 97 % of control | dose: 20.0 mg/kg/injection, schedule: Q01DX Z (ip), vehicle: water 102 % of control | dose: 30.0 mg/kg/injection, schedule: Q01DX Z (ip), vehicle: water 96 % of control | dose: 40.0 mg/kg/injection, schedule: Q01DX Z (ip), vehicle: water 102 % of control

CN=C(C)c1ccc(N(C)C)cc1
inactive: [1] 101 % of control | [2] 92 % of control | [3] 97 % of control

C/C(=N\O)C(C)(C)C
inactive: dose: 25.0 mg/kg/injection, schedule: Q04DX002 (ip), vehicle: Klucel (hydroxypropylcellulose) (HPC) 98 % of control | dose: 50.0 mg/kg/injection, schedule: Q04DX002 (ip), vehicle: Klucel (hydroxypropylcellulose) (HPC) 91 % of control | [4] 94 % of control and 103 % of control

CCOC(=O)c1cc2c(-c3ccccc3)c(-c3ccccc3)c(-c3ccccc3)c(-c3ccccc3)n2n1
inactive: [5] 93 % of control | [6] 93 % of control

O=C(O)C1C(=O)Oc2c(cccc2[N+](=O)[O-])C1O (configuration not stated)
inactive: [7] 94 % of control | [8] 92 % of control | [9] 92 % of control

C=C(C)COC(OCC(=C)C)C(C)C
inactive: [10] 96 % of control | [4] 102 % of control | [11] 89 % of control | [12] 109 % of control | [13] 112 % of control

CCCCOB(OCCCC)c1cccc(B(OCCCC)OCCCC)c1
inactive: [5] 89 % of control | dose: 200.0 mg/kg/injection, schedule: Q01DX001 (ip), vehicle: saline 101 % of control | [6] 117 % of control

ClCC(Cl)CN1CCCCC1 (configuration not stated)
inactive: [14] 112 % of control

CN(C)c1ccc(C(=O)O)cn1
inactive: [15] 96 % of control | dose: 100.0 mg/kg/injection, schedule: Q04DX003 (ip), vehicle: saline 100 % of control | [16] 105 % of control | dose: 200.0 mg/kg/injection, schedule: Q04DX003 (ip), vehicle: saline 100 % of control | [17] 102 % of control | dose: 400.0 mg/kg/injection, schedule: Q04DX003 (ip), vehicle: saline 100 % of control

CC(C)=CCC/C(C)=C\COc1cccc(C)c1
inactive: [18] 100 % of control | [19] 96 % of control | [20] 96 % of control

O=C(c1ccccc1)c1cccc(C(Br)Br)c1
inactive: [14] 96 % of control | [21] 95 % of control | [22] 95 % of control

c1cc(CCCc2ccncc2)ccn1
inactive: [23] 108 % of control | [24] 95 % of control | dose: 100.0 mg/kg/injection, schedule: Q04DX002 (ip), vehicle: saline 95 % of control

Cc1ccc(NC(=O)NCCBr)cc1
inactive: dose: 50.0 mg/kg/injection, schedule: Q01DX001 (ip), vehicle: carboxymethylcellulose (CMC) 101 % of control | [7] 101 % of control | [8] 106 % of control | [9] 98 % of control

CCCC[P+](CO)(CCCC)CCCC
inactive: dose: 30.0 mg/kg/injection, schedule: Q01DX001 (ip), vehicle: saline 102 % of control

COC1OC(CO)C(OS(=O)(=O)c2ccc(C)cc2)C(C(=O)Oc2ccccc2)C1OC(=O)c1ccccc1 (configuration not stated)
inactive: dose: 50.0 mg/kg/injection, schedule: Q04DX002 (ip), vehicle: saline with Tween-80 93 % of control | [18] 104 % of control | [19] 90 % of control

COC1OC2COC(c3ccccc3)OC2C(O)C1OC (configuration not stated)
inactive: dose: 12.5 mg/kg/injection, schedule: Q04DX002 (ip), vehicle: saline 100 % of control | [23] 100 % of control | [24] 116 % of control

CC/C=C/C1(C(C)C)C(=O)NC(=O)NC1=O
inactive: dose: 75.0 mg/kg/injection, schedule: Q01DX001 (ip), vehicle: saline 103 % of control | dose: 150.0 mg/kg/injection, schedule: Q01DX001 (ip), vehicle: saline 105 % of control

C/C(=N/N=C(N)N)C(C)C
inactive: dose: 15.0 mg/kg/injection, schedule: Q01DX Z (ip), vehicle: carboxymethylcellulose (CMC) 102 % of control | dose: 27.0 mg/kg/injection, schedule: Q01DX Z (oral), vehicle: carboxymethylcellulose (CMC) 95 % of control | dose: 30.0 mg/kg/injection, schedule: Q01DX Z (ip), vehicle: carboxymethylcellulose (CMC) 100 % of control | dose: 40.0 mg/kg/injection, schedule: Q01DX Z (oral), vehicle: carboxymethylcellulose (CMC) 98 % of control | dose: 60.0 mg/kg/injection, schedule: Q01DX Z (ip), vehicle: carboxymethylcellulose (CMC) 92 % of control | dose: 60.0 mg/kg/injection, schedule: Q01DX Z (oral), vehicle: carboxymethylcellulose (CMC) 106 % of control | dose: 90.0 mg/kg/injection, schedule: Q01DX Z (oral), vehicle: carboxymethylcellulose (CMC) 98 % of control | dose: 120.0 mg/kg/injection, schedule: Q01DX Z (oral), vehicle: carboxymethylcellulose (CMC) 101 % of control | dose: 135.0 mg/kg/injection, schedule: Q01DX Z (oral), vehicle: carboxymethylcellulose (CMC) 97 % of control

Cc1cc(C)c(C(=O)O)c(C)c1Br
inactive: dose: 50.0 mg/kg/injection, schedule: Q01DX001 (ip), vehicle: other 98 % of control | [25] 104 % of control | [14] 96 % of control | [26] 96 % of control | [21] 94 % of control | [27] 111 % of control | [22] 103 % of control

COc1ccc(-c2cc(-c3ccc(Cl)cc3)no2)cc1
inactive: [1] 106 % of control | [2] 92 % of control | [3] 95 % of control

CN(C)c1ccc(P(c2ccc(N(C)C)cc2)c2ccc(N(C)C)cc2)cc1
inactive: [10] 91 % of control | [1] 95 % of control | [11] 91 % of control | [2] 95 % of control | [28] 87 % of control | [3] 95 % of control

CCOC(=O)NNC(=S)Nc1cccc(C(F)(F)F)c1
inactive: [18] 111 % of control | [19] 108 % of control

O=C(NC(=S)Nc1cccc2ccc(O)cc12)c1ccc(Cl)cc1Cl
inactive: dose: 100.0 mg/kg/injection, schedule: Q01DX001 (ip), vehicle: saline with Tween-80 101 % of control | [15] 94 % of control and 106 % of control | [18] 103 % of control and 92 % of control | [14] 100 % of control | dose: 200.0 mg/kg/injection, schedule: Q01DX001 (ip), vehicle: saline with Tween-80 92 % of control | [16] 98 % of control and 101 % of control | [19] 95 % of control and 103 % of control | [21] 97 % of control | dose: 400.0 mg/kg/injection, schedule: Q01DX001 (ip), vehicle: saline with Tween-80 103 % of control | [17] 103 % of control and 108 % of control | [20] 97 % of control and 98 % of control | [22] 92 % of control

[Cl][Sn]([Cl])([c]1ccccc1)[c]1ccccc1.c1ccncc1
inactive: dose: 25.0 mg/kg/injection, schedule: Q01DX009 (ip), vehicle: saline 111 % of control | dose: 50.0 mg/kg/injection, schedule: Q01DX009 (ip), vehicle: saline 114 % of control | dose: 100.0 mg/kg/injection, schedule: Q01DX009 (ip), vehicle: saline 96 % of control

CCC(C)(C)c1ccc(O)c(C(C)(C)CC)c1
inactive: [10] 96 % of control | [1] 100 % of control | [11] 96 % of control | [2] 89 % of control | [28] 96 % of control | [3] 87 % of control

Cc1cccc(Cl)c1NC(=O)C(Cl)Cl
inactive: [4] 113 % of control | [12] 107 % of control | [13] 110 % of control

Cc1cccc(NC(=O)NCCCl)c1
inactive: [25] 97 % of control | [10] 95 % of control | [4] 102 % of control | [26] 105 % of control | [11] 92 % of control | [12] 113 % of control | [27] 97 % of control | [28] 92 % of control | [13] 102 % of control
